# Test results from patent US20070167464A1, “Fungicidal mixtures” (BASF Aktiengesellschaft, priority 2004, published 2007).
# Test system: Pyrenophora teres
# Assay: activity against net blotch of barley caused by Pyrenophora teres, 1-day-protective application
# Assay type: in vivo, Pyrenophora [syn. Drechslera] teres on barley seedlings
# Conditions: individual active compound, evaluated after 6 days
# Method: The active compounds, separately or jointly, were prepared as a stock solution comprising 0.25% by weight of active compound in acetone or DMSO. 1% by weight of the emulsifier Uniperol® EL (wetting agent having emulsifying and dispersant action based on ethoxylated alkylphenols) was added to this solution, and the mixture was diluted with water to the desired concentration.
# Use example-activity against net blotch of barley caused by Pyrenophora teres, 1-day-protective application
# Leaves of pot-grown barley seedlings were sprayed to run-off point with an aqueous suspension having the concentration of active compound stated below. 24 hours after the spray coating had dried on, the test plants were inoculated with an aqueous spore suspension of Pyrenophora[syn. Drechslera] teres, the causative agent of net blotch. The test plants were subsequently placed in a greenhouse at temperatures between 20 and 24° C. and at 95 to 100% relative atmospheric humidity. After 6 days, the extent of development of the disease was determined visually in % infection of the total leaf area.
# The visually determined percentages of infected leaf areas were converted into efficacies in % of the untreated control:
# The efficacy (E) is calculated as follows using Abbot's formula: E=(1α/β)·100 • α corresponds to the fungicidal infection of the treated plants in % and • β corresponds to the fungicidal infection of the untreated (control) plants in %
# An efficacy of 0 means that the infection level of the treated plants corresponds to that of the untreated control plants; an efficacy of 100 means that the treated plants were not infected.
# The expected efficacies of mixtures of active compounds were determined using Colby's formula (Colby, S. R. “Calculating synergistic and antagonistic responses of herbicide combinations”, Weeds, 15, 20-22, 1967) and compared with the observed efficacies.
# Colby's Formula: E=x+y−x·y/100 • E expected efficacy, expressed in % of the untreated control, when using the mixture of the active compounds A and B at the concentrations a and b • x efficacy, expressed in % of the untreated control, when using the active compound A at the concentration a
# y efficacy, expressed in % of the untreated control, when using the active compound B at the concentration b
Compound,Efficacy in % of the untreated control (1.25 ppm in the spray liquor),Efficacy in % of the untreated control (0.25 ppm in the spray liquor),Efficacy in % of the untreated control (6.25 ppm in the spray liquor)
"CC1CCN(c2c(-c3c(F)cc(F)cc3F)c(Cl)nc3ncnn23)CC1 [I, 5-chloro-7-(4-methylpiperidin-1-yl)-6-(2,4,6-trifluorophenyl)-[1,2,4]triazolo[1,5-a]pyrimidine]",53%,–,–
"CC(C)OC(=O)N[C@H](C(=O)N[C@H](C)c1nc2ccc(F)cc2s1)C(C)C [II.1, isopropyl {(S)-1-[(1 R)-1-(6-fluorobenzothiazol-2-yl)ethylcarbamoyl]-2-methylpropyl}carbamate]",0%,0%,0%
